Where two headings read alike, the source gives them in different places.
Test system: M. mycetomatis genome strain MM55
Test: CLSI M38-A2 based in vitro susceptibility screening (XTT or resazurin), growth at fixed concentration
Format: cell-based, Madurella mycetomatis
Conditions: Madurella mycetomatis; for Percent fungal survival at 100 µM: read-out: Percentage survival at 100um, 100 uM A (second replicate column)
[1] = mean of three replicates, read-out: Percentage survival at 25um, 25 uM mean
[2] = replicate A, read-out: Percentage survival at 25um, 25 um A
[3] = replicate B, read-out: Percentage survival at 25um, 25 uM B
[4] = replicate C, read-out: Percentage survival at 25um, 25 uM C
[5] = mean of three replicates, read-out: Percentage survival at 100um, 100 uM mean
[6] = mean of replicates, MM55, read-out: Percentage survival at 25um, 25 uM mean
[7] = replicate A, MM55, read-out: Percentage survival at 25um, 25 um A
[8] = replicate B, MM55, read-out: Percentage survival at 25um, 25 uM B
[9] = replicate C, MM55, read-out: Percentage survival at 25um, 25 uM C
[10] = mean of replicates, MM55, read-out: Percentage survival at 100um, 100 uM mean
[11] = replicate 1, MM55, read-out: Percentage survival at 100um, 100 uM A
[12] = replicate 2, MM55, read-out: Percentage survival at 100um, 100 uM A
[13] = replicate 3, MM55, read-out: Percentage survival at 100um, 100 uM A
[14] = replicate 1, read-out: Percentage survival at 100um, 100 uM A (first replicate column)
[15] = replicate 3, read-out: Percentage survival at 100um, 100 uM A (third replicate column)
[16] = mean, read-out: Percentage survival at 25um, 25 uM mean
[17] = mean, read-out: Percentage survival at 100um, 100 uM mean
[18] = replicate (first column), read-out: Percentage survival at 100um, 100 uM A
[19] = replicate (second column), read-out: Percentage survival at 100um, 100 uM A
[20] = replicate (third column), read-out: Percentage survival at 100um, 100 uM A

Compound | activity at 25 µM [2] | activity at 25 µM [3] | activity at 25 µM [4] | activity at 25 µM [6] | activity at 25 µM [7] | activity at 25 µM [8] | activity at 25 µM [9] | activity at 100 µM [10] | activity at 100 µM [11] | activity at 100 µM [12] | activity at 100 µM [13] | activity at 25 µM [16] | activity at 100 µM [17] | activity at 100 µM [18] | activity at 100 µM [19] | activity at 100 µM [20] | other results
CCOC(=O)/C=C/[C@H](C[C@@H]1CCNC1=O)NC(=O)[C@H](CC)n1cccc(NC(=O)c2cc(C)on2)c1=O [MMV1782112] | 76.9% | 89.6% | 110% |  |  |  |  |  |  |  |  |  |  |  |  |  | activity at 25 µM [1]: 92.1%; activity at 100 µM (first replicate column, read-out: Percentage survival at 100um, 100 uM A): 81.9%; activity at 100 µM [5]: 68.4%; activity at 100 µM (second replicate column, read-out: Percentage survival at 100um, 100 uM A): 76.6%; activity at 100 µM (third replicate column, read-out: Percentage survival at 100um, 100 uM A): 46.5%
CCCC1(C2CC2)c2cc(Cl)ccc2NC(=O)N1C (centres unmarked) [MMV1782113] |  |  |  | 68.5% | 67.5% | 76.8% | 61.2% | 56.1% | 52.9% | 56.4% | 58.9% |  |  |  |  |  | 
O=C(NN1C(=O)[C@@H]2C3C=CC([C@H]4C[C@@H]34)[C@@H]2C1=O)c1ccc(C(F)(F)F)cc1 [MMV1782114] | 95.2% | 94.5% | 80.6% |  |  |  |  |  |  |  |  |  |  |  |  |  | activity at 25 µM [1]: 90.1%; activity at 100 µM [5]: 84.5%; activity at 100 µM [14]: 90%; Percent fungal survival at 100 µM (replicate 2): 78.4%; activity at 100 µM [15]: 85%
COc1ccc2sc3c(c2c1)NC(C)CNC3=O (centres unmarked) [MMV1782115] | 57.6% | 74.6% | 27.1% |  |  |  |  |  |  |  |  |  |  |  |  |  | activity at 25 µM [1]: 53.1%; activity at 100 µM [5]: -0.834%; activity at 100 µM [14]: -3.17%; Percent fungal survival at 100 µM (replicate 2): -0.401%; activity at 100 µM [15]: 1.07%
CN1C(=O)C(c2ccccc2)C(=O)N(c2ccccc2)c2cc(C(F)(F)F)ccc21 (centres unmarked) [MMV1782208] |  |  |  | 99.7% | 120% | 99.1% | 80.3% | 90.1% | 94.2% | 97.9% | 78.1% |  |  |  |  |  | 
COc1ccc(C(C)(C)C)cc1NC(=O)C(=O)c1ccc(OCCN2CCOCC2)c2ccccc12 [MMV1782209] |  |  |  | 96.3% | 102% | 99.5% | 87.2% | 91.3% | 102% | 86% | 85.7% |  |  |  |  |  | 
Nc1nc2c(ncn2/C=C2/CC2(CO)CO)c(=O)[nH]1 [MMV1782210] |  |  |  | 94.9% | 102% | 100% | 83.3% | 81.8% | 89.9% | 79.8% | 75.6% |  |  |  |  |  | 
C[C@@H](NC(=O)c1cccc(-c2c[nH]c(-c3cc4ccccc4cn3)n2)c1)c1ccc(F)cc1 [MMV1782211] |  |  |  | 77% | 80.9% | 86% | 64.2% | 70% | 78.5% | 73.3% | 58.3% |  |  |  |  |  | 
CC(C)(C)c1ccc(C(=O)NC(=O)N2CCCc3ccccc32)cc1 [MMV1782212] | 90.3% | 74.4% | 70.6% |  |  |  |  |  |  |  |  | 78.4% | 81.3% | 68.7% | 79.3% | 95.8% | 
O=C(CSc1nnc(Br)n1-c1ccc(C2CC2)c2ccccc12)Nc1ccc(C(=O)O)cc1Cl [MMV1782213] |  |  |  | 81% | 93.7% | 82% | 67.3% | 74.5% | 63.5% | 115% | 45.2% |  |  |  |  |  | 
C=CCN(C(=O)OCc1ccc([N+](=O)[O-])cc1)C1CCN(CC[C@](C)(CN(C)S(=O)(=O)c2ccccc2)c2ccccc2)CC1 [MMV1782214] |  |  |  | 69.4% | 79.7% | 66.7% | 61.9% | 62.1% | 55.9% | 76.9% | 53.4% |  |  |  |  |  | 
O=P(O)(O)C(CCCc1cccc(Oc2ccccc2)c1)S(=O)(=O)O (centres unmarked) [MMV1782215] | 82.3% | 68.2% | 56.8% |  |  |  |  |  |  |  |  |  |  |  |  |  | activity at 25 µM [1]: 69.1%; activity at 100 µM [5]: 68.9%; activity at 100 µM [14]: 79.5%; Percent fungal survival at 100 µM (replicate 2): 65.1%; activity at 100 µM [15]: 62%
CCCNc1ccc(S(=O)(=O)Nc2cc(C)on2)cc1 [MMV1782216] | 81.9% | 68.5% | 77.2% |  |  |  |  |  |  |  |  | 75.9% | 87.1% | 83.4% | 74.1% | 104% | 
Cc1cc(NS(=O)(=O)c2ccc(-c3ccc(F)cc3F)cc2)no1 [MMV1782217] | 76.3% | 79.1% | 81.1% |  |  |  |  |  |  |  |  | 78.8% | 93.7% | 83.4% | 76.4% | 121% | 
O=C(NC(=O)N1CCCc2ccccc21)c1ccc(Cl)cc1Cl [MMV1782218] | 84.5% | 82% | 66.6% |  |  |  |  |  |  |  |  | 77.7% | 59.4% | 65.3% | 55.7% | 57.2% | 
CC(C)CCN1C(=O)C(C2=NS(=O)(=O)c3cc(NS(C)(=O)=O)ccc3N2)=C(O)[C@@H]2[C@H]3CC[C@H](C3)[C@@H]21 [MMV1782220] |  |  |  | 83.6% | 78.4% | 83.3% | 89.2% | 113% | 140% | 71% | 127% |  |  |  |  |  | 
C[C@H](c1cccc2ccccc12)N(C)Cc1ccccc1 [MMV1782221] |  |  |  |  |  |  |  |  |  |  |  |  |  |  |  |  | activity at 25 µM (mean of three, M. mycetomatis MM55, read-out: Percentage survival at 25um, 25 uM mean): 60.5%; activity at 25 µM (replicate A, M. mycetomatis MM55, read-out: Percentage survival at 25um, 25 um A): 78.4%; activity at 25 µM (replicate B, M. mycetomatis MM55, read-out: Percentage survival at 25um, 25 uM B): 99.2%; activity at 25 µM (replicate C, M. mycetomatis MM55, read-out: Percentage survival at 25um, 25 uM C): 3.87%; activity at 100 µM (mean of three, M. mycetomatis MM55, read-out: Percentage survival at 100um, 100 uM mean): 78.8%; activity at 100 µM (replicate 1, M. mycetomatis MM55, read-out: Percentage survival at 100um, 100 uM A (first replicate column)): 56%; Percent fungal survival at 100 µM (replicate 2, M. mycetomatis MM55): 63.1%; activity at 100 µM (replicate 3, M. mycetomatis MM55, read-out: Percentage survival at 100um, 100 uM A (third replicate column)): 117%
CN1c2ccc(Cl)cc2N(c2ccccc2)C(=O)c2cn(Cc3ccc(CN4CCOCC4)cc3)nc21 [MMV1782222] | 58.9% | 64.9% | 59.6% |  |  |  |  |  |  |  |  |  |  |  |  |  | activity at 25 µM (mean of replicates, read-out: Percentage survival at 25um, 25 uM mean): 61.1%; activity at 100 µM (mean of replicates, read-out: Percentage survival at 100um, 100 uM mean): 60.2%; activity at 100 µM [14]: 52.1%; Percent fungal survival at 100 µM (replicate 2): 70.5%; activity at 100 µM [15]: 58.2%
CN(C)c1[nH]c(=O)ncc1F [MMV1782223] | 97% | 101% | 80.9% |  |  |  |  |  |  |  |  | 93% | 82.8% | 84% | 75.3% | 88.9% | 
O=C(Nc1[nH]c(=O)ncc1F)c1ccccc1 [MMV1782225] | 82.4% | 77.6% | 77.1% |  |  |  |  |  |  |  |  | 79% | 83.6% | 74.1% | 79.1% | 97.6% | 
OB1OCc2c1ccc(Cl)c2F [MMV1782226] | 54.6% | 46.9% | 63.1% |  |  |  |  |  |  |  |  | 54.9% | 64.2% | 55.3% | 77.4% | 59.8% | 
O=C(NNC(=S)Nc1ccc(Cl)cc1)c1ccncc1 [MMV1782227] | 105% | 86.1% | 67% |  |  |  |  |  |  |  |  | 85.9% | 121% | 128% | 90.7% | 144% | 

Source: paper PMC8815882, “Screening the pandemic response box identified benzimidazole carbamates, Olorofim and ravuconazole as promising drug candidates for the treatment of eumycetoma” (PLoS Neglected Tropical Diseases, 2022)
